Values joined by “and” are separate entries in the source; they are usually repeats but may differ in a detail not shown here. Identical values can stand only once. Like-named read-outs stand apart in the source and are kept apart here. One block for each molecule: values may come before it.
Columns and labels:
P-gp [1] = tested on: P-gp
[2] = ref Facts & Comparisons 4.0, online edition, cited from earlier work
P-gp [3] = experiment: in vitro; conditions: human, EC50 to up-regulate P-gp expression
P-gp [4] = experiment: Western blot analysis of P-gp protein expression in drug-treated LS-180 cells
P-gp [5] = experiment: in vitro; conditions: human, EC50 to up-regulate P-gp activity
MDR1 mRNA = conditions: LS-180 cells, 48 h, 50 μM
P-gp [6] = conditions: rat, three-day in vivo treatment, 20 mg/kg once daily; cited from earlier work

Molecule: Cn1c(=O)c2c(ncn2C)n(C)c1=O [Caffeine, caffeine]
increase in P-gp activity (P-gp [1]): 250–300%
plasma concentration, range ([2]; after 250 mg dose): 25 to 130 µM
EC50 at 48 h (P-gp [3]): 9.1 µM

Molecule: hyperforin
increase in P-gp activity (P-gp [1]; LS-180 cells, 48 h, 50 nM): 110%
increase in P-gp activity (P-gp [1]; LS-180 cells, 48 h, 150 nM): 190%

Molecule: C1CCc2nnnn2CC1 [Pentylenetetrazole, pentylenetetrazole]
increase in P-gp expression (P-gp [4]; 48 h, 50 μM): ~ 10%
increase in P-gp expression (P-gp [4]; 48 h, 100 μM): 100%
up-regulation of P-gp protein levels (P-gp [4]; 48 h, concentrations at 50 μM and higher): ≤ 2 fold
EC50 at 48 h (P-gp [4]; human, EC50 to up-regulate P-gp expression, following normalization to 100%): > 50 µM
EC50 at 48 h (P-gp [5]): 11.8 µM
fold increase in MDR1 mRNA level (MDR1 mRNA): ~ 3 fold and 3–4 fold
induction in P-gp activity (P-gp [1]; LS-180 cells, 48 h, 50 μM): 70%
increase in P-gp activity (P-gp [1]; LS-180 cells, 48 h, concentration range 25–100 μM): ~ 80%
increase in P-gp activity (P-gp [1]; LS-180 cells, 48 h, concentration range 25–100 μM, listed as pentylenetetrazole): 80%
Emax (fold ↑ in P-gp activity) (P-gp [1]; LS-180 cells, 48 h, four-parameter Hill fit): 2.0 fold

Molecule: CO[C@H]1/C=C/O[C@@]2(C)Oc3c(C)c(O)c4c(O)c(c(/C=N/N5CCN(C)CC5)c(O)c4c3C2=O)NC(=O)/C(C)=C\C=C\[C@H](C)[C@H](O)[C@@H](C)[C@@H](O)[C@@H](C)[C@H](OC(C)=O)[C@@H]1C [Rifampicin]
increase in P-gp activity (P-gp [1]; LS-180 cells, 48 h, over the range 5–100 μM): 60–290%
plasma concentrations, range ([2]; following 600 mg dose): 5 to 38 µM
EC50 at 48 h (P-gp [3]): 5 µM

EC50 at 48 h (P-gp [3]): 46 µM
Molecule: C[C@@H]1C[C@H]2[C@@H]3CCC4=CC(=O)C=C[C@]4(C)[C@@]3(F)[C@@H](O)C[C@]2(C)[C@@]1(O)C(=O)CO [Dexamethasone, dexamethasone]

Molecule: CC(C)c1nc(CN(C)C(=O)N[C@H](C(=O)N[C@@H](Cc2ccccc2)C[C@H](O)[C@H](Cc2ccccc2)NC(=O)OCc2cncs2)C(C)C)cs1 [ritonavir]
increase in P-gp expression at the BBB (P-gp [6]): 30%

From article PMC3172709 (Journal of pharmacy & pharmaceutical sciences : a …, 2011)
